In article PMC4268243 (Nuclear medicine and biology, 2014):

Assays:
A549 tumor xenograft = assay: Biodistribution in A549 tumor-bearing SCID mice; format: in vivo; conditions: listed as (S)-[^18F]FAMP 1
[1] = system: DU145 androgen-independent prostate carcinoma cells; assay: Amino acid uptake and inhibition in DU145 cells; format: cell-based, human; conditions: DU145, 30 minutes incubation
[2] = system: SKOV3 estrogen-positive ovarian adenocarcinoma cells; assay: Amino acid uptake and inhibition in SKOV3 cells; format: cell-based, human; conditions: SKOV3, 30 minutes incubation
U87 tumor xenograft = assay: Biodistribution in U87 tumor-bearing SCID mice; format: in vivo; conditions: listed as (S)-[^18F]FAMP 1
[3] = system: A549 lung adenocarcinoma cells; assay: Amino acid uptake and inhibition in A549 cells; format: cell-based, human; conditions: A549, 30 minutes incubation

## CC(N)(C[18F])C(=O)O [(S)-[^18F]1] [2-amino-3-[^18F]fluoro-2-methylpropanoic acid]
A549 tumor xenograft; 60 min post injection
  uptake in kidney: 17±1.4 %ID/g
  uptake in liver: 3.5±0.4 %ID/g
  uptake in lung: 2.8±1.3 %ID/g
  uptake in muscle: 2.9±0.6 %ID/g
  uptake in pancreas: 33±6.1 %ID/g
  uptake in spleen: 6.5±1.1 %ID/g
  uptake in tumor: 8.3±1.0 %ID/g
A549 tumor xenograft; 120 min post injection
  uptake in blood: 2.0±0.4 %ID/g
  uptake in bone: 2.0±0.5 %ID/g
  uptake in brain: 0.8±0.1 %ID/g
  uptake in heart: 2.7±0.8 %ID/g
  uptake in kidney: 14±1.8 %ID/g
  uptake in liver: 2.8±0.4 %ID/g
  uptake in lung: 3.1±0.9 %ID/g
  uptake in muscle: 2.3±0.4 %ID/g
  uptake in pancreas: 29±2.3 %ID/g
  uptake in spleen: 6.0±1.7 %ID/g
  uptake in tumor: 6.5±0.8 %ID/g
[1]; 10 mM BCH
  Cell uptake: 1.6±0.1 % ID/5×10^5 cells
[1]; 10 mM MeAIB
  Cell uptake: 3.2±0.4 % ID/5×10^5 cells
[1]; Control (no inhibitor)
  Cell uptake: 3.6±0.3 % ID/5×10^5 cells
[2]; 10 mM BCH
  Cell uptake: 1.7±0.1 % ID/5×10^5 cells
[2]; 10 mM MeAIB
  Cell uptake: 2.9±0.2 % ID/5×10^5 cells
[2]; Control (no inhibitor)
  Cell uptake: 3.9±0.2 % ID/5×10^5 cells
U87 tumor xenograft; 15 min post injection
  uptake in blood: 3.5±0.4 %ID/g
  uptake in bone: 2.4±0.7 %ID/g
  uptake in brain: 0.5±0.1 %ID/g
  uptake in heart: 3.1±0.4 %ID/g
  uptake in kidney: 37±4.9 %ID/g
  uptake in liver: 6.6±2.0 %ID/g
  uptake in lung: 4.6±0.6 %ID/g
  uptake in muscle: 3.3±0.7 %ID/g
  uptake in pancreas: 48±11 %ID/g
  uptake in spleen: 11±2.7 %ID/g
  uptake in tumor: 6.4±1.3 %ID/g
U87 tumor xenograft; 30 min post injection
  uptake in blood: 3.7±0.7 %ID/g
  uptake in bone: 2.1±0.5 %ID/g
  uptake in brain: 0.6±0.1 %ID/g
  uptake in heart: 3.1±0.4 %ID/g
  uptake in kidney: 28±5.2 %ID/g
  uptake in liver: 6.0±1.0 %ID/g
  uptake in lung: 3.6±0.5 %ID/g
  uptake in muscle: 3.3±0.3 %ID/g
  uptake in pancreas: 50±8.7 %ID/g
  uptake in spleen: 10±1.0 %ID/g
  uptake in tumor: 6.8±0.8 %ID/g
U87 tumor xenograft; 60 min post injection
  uptake in blood: 2.1±0.4 %ID/g
  uptake in bone: 2.0±0.1 %ID/g
  uptake in brain: 0.6±0.1 %ID/g
  uptake in heart: 2.8±0.7 %ID/g
  uptake in kidney: 15±3.3 %ID/g
  uptake in liver: 4.4±0.6 %ID/g
  uptake in lung: 2.6±0.8 %ID/g
  uptake in muscle: 2.3±0.3 %ID/g
  uptake in pancreas: 32±11 %ID/g
  uptake in spleen: 6.1±1.1 %ID/g
  uptake in tumor: 4.4±0.8 %ID/g
U87 tumor xenograft; 120 min post injection
  uptake in blood: 1.2±0.5 %ID/g
  uptake in bone: 1.0±0.3 %ID/g
  uptake in brain: 0.7±0.2 %ID/g
  uptake in heart: 2.1±0.3 %ID/g
  uptake in kidney: 7.3±1.4 %ID/g
  uptake in liver: 4.1±1.3 %ID/g
  uptake in lung: 1.5±0.4 %ID/g
  uptake in muscle: 1.3±0.3 %ID/g
  uptake in pancreas: 18±6.4 %ID/g
  uptake in spleen: 3.4±1.1 %ID/g
  uptake in tumor: 2.8±0.4 %ID/g
[3]; 10 mM BCH
  Cell uptake: 1.5±0.1 % ID/5×10^5 cells
[3]; 10 mM MeAIB
  Cell uptake: 3.9±0.6 % ID/5×10^5 cells
[3]; Control (no inhibitor)
  Cell uptake: 4.8±0.7 % ID/5×10^5 cells
